The text below walks through data of patent US20110105514A1, “5,6,7,8-TETRAHYDRO-IMIDAZO[1,5-A]PYRAZINE COMPOUNDS” (priority 2008, published 2011).

One assay addresses T1, human orexin-1 receptor (Homo sapiens, UniProt O43613).
T1 construct: expressed in transfected cells; host or cells: Chinese hamster ovary (CHO) cells
T1 sequence (O43613 1-425): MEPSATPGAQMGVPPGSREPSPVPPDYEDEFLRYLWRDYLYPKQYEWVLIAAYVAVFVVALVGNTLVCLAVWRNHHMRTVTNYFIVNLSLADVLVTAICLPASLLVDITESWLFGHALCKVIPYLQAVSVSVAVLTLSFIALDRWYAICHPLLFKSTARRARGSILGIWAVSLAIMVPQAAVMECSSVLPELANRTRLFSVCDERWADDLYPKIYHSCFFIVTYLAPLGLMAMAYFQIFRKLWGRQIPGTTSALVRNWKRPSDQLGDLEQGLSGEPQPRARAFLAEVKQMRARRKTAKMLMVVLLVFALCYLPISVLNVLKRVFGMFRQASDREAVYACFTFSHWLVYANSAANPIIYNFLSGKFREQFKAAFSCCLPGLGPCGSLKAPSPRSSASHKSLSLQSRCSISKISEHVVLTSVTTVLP
Briefly: FLIPR calcium assay of orexin receptor antagonistic activity, CHO cells expressing the human orexin-1 receptor. In kind it is cell-based. The conditions noted are these: 3 nM orexin-A as agonist. On the procedure:
(§1) The orexin receptor antagonistic activity of the compounds of formula (I) is determined in accordance with the following experimental method.
(§2) Chinese hamster ovary (CHO) cells expressing the human orexin-1 receptor and the human orexin-2 receptor, respectively, are grown in culture medium (Ham F-12 with L-Glutamine) containing 300 μg/ml G418, 100 U/ml penicillin, 100 μg/ml streptomycin and 10% heat inactivated fetal calf serum (FCS). The cells are seeded at 20′000 cells/well into 384-well black clear bottom sterile plates (Greiner). The seeded plates are incubated overnight at 37° C. in 5% CO2.
(§3) Human orexin-A as an agonist is prepared as 1 mM stock solution in MeOH:water (1:1), diluted in HBSS containing 0.1% bovine serum albumin (BSA), NaHCO3: 0.375 g/l and 20 mM HEPES for use in the assay at a final concentration of 3 nM.
(§4) Antagonists are prepared as 10 mM stock solution in DMSO, then diluted in 384-well plates using DMSO followed by a transfer of the dilutions into in HBSS containing 0.1% bovine serum albumin (BSA), NaHCO3: 0.375 g/l and 20 mM HEPES. On the day of the assay, 50 μl of staining buffer (HBSS containing 1% FCS, 20 mM HEPES, NaHCO3: 0.375 g/l, 5 mM probenecid (Sigma) and 3 μM of the fluorescent calcium indicator fluo-4 AM (1 mM stock solution in DMSO, containing 10% pluronic) is added to each well. The 384-well cell-plates are incubated for 50 min at 37° C. in 5% CO2 followed by equilibration at RT for 30-120 min before measurement.
(§5) Within the Fluorescent Imaging Plate Reader (FLIPR Tetra, Molecular Devices), antagonists are added to the plate in a volume of […], incubated for 10 min and finally […] of agonist is added. Fluorescence is measured for each well at 1 second intervals, and the height of each fluorescence peak is compared to the height of the fluorescence peak induced by 3 nM orexin-A with vehicle in place of antagonist. For each antagonist, the IC50 value (the concentration of compound needed to inhibit 50% of the agonistic response) is determined and may be normalized using the obtained IC50 value of a on-plate reference compound (normalized values in Table 1 indicated by an asterisk*).
(§6) The calculated IC50 values of the compounds may fluctuate depending on the daily cellular assay performance. Fluctuations of this kind are known to those skilled in the art.

The target in a further assay is T2, human orexin-2 receptor (Homo sapiens, UniProt O43614).
T2 construct: expressed in transfected cells; host or cells: Chinese hamster ovary (CHO) cells
T2 sequence (O43614 1-444): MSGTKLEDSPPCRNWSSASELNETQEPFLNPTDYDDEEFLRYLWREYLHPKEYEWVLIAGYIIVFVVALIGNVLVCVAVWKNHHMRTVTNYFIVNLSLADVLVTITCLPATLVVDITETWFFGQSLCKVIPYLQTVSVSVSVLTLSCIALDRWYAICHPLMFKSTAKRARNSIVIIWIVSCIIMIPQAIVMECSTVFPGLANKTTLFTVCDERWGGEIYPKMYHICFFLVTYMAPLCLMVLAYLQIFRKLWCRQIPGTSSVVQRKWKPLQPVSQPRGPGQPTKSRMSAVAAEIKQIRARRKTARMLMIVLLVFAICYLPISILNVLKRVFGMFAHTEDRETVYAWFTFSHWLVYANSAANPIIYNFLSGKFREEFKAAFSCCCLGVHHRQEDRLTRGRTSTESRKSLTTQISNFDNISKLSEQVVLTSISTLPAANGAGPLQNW
Kind of assay: FLIPR calcium assay of orexin receptor antagonistic activity, CHO cells expressing the human orexin-2 receptor. In kind it is cell-based. The conditions noted are these: 3 nM orexin-A as agonist. On the procedure: as §1, §2, §3, §4, §5, §6

The subject of assay [1] is rat. The following applies: rat model; cited from earlier work.
The subject of assay [2] is rat. The following applies: cited from earlier work.
For assay [3], the system named is rat. The conditions noted are these: cited from earlier work. This is another data set of the same source.
Setting [4] is: normalized using IC50 of on-plate reference compound (asterisk), read-out: OX1 IC50 (in nM), normalized value.
The mark [5] stands for this setting: normalized using IC50 of on-plate reference compound (asterisk), read-out: OX2 IC50 (in nM), normalized value.
Where [6] appears, read: value not normalized, read-out: OX1 IC50.
The mark [7] stands for this setting: value not normalized, read-out: OX2 IC50.

SMILES strings stand for the structures. Where two headings read alike, the source gives them in different places.

Take `CCc1nc(S(C)(=O)=O)c2n1CCN([C@@H](C(=O)NC)c1ccccc1)[C@H]2CCc1ccc(C(F)(F)F)cc1` [Example 23, (R)-2′-{3-ethyl-1-methanesulfonyl-(S)-8-[2-(4-trifluoromethyl-phenyl)-ethyl]-5,6-dihydro-8H-imidazo[1,5-a]pyrazin-7-yl}-N-methyl-2′-phenyl-acetamide]: the half-inhibitory concentration (IC50) on human orexin-1 receptor (setting [4]) was 1680 nM; at human orexin-2 receptor (setting [5]) it was 25 nM.
On the same counts, the results for `CNC(=O)[C@@H](c1ccccc1)N1CCn2c(C3CC3)nc(Cl)c2[C@@H]1CCc1cccc(C(F)(F)F)c1` [Example 26, (R)-2′-{1-chloro-3-cyclopropyl-(S)-8-[2-(3-trifluoromethyl-phenyl)-ethyl]-5,6-dihydro-8H-imidazo[1,5-a]pyrazin-7-yl}-N-methyl-2′-phenyl-acetamide] are 91 nM and 7 nM.
Regarding `CNC(=O)[C@@H](c1ccccc1)N1CCc2cc(OC)c(OC)cc2[C@@H]1CCc1ccc(C(F)(F)F)cc1` [(2R)-2-{(1S)-6,7-dimethoxy-1-[2-(4-trifluoromethyl-phenyl)-ethyl]-3,4-dihydro-1H-isoquinolin-2-yl}-N-methyl-2-phenyl-acetamide], in the assay on rat [1], the memory function result is “enhance memory function”. In addition, in the assay on rat [2], the “alertness (active wake and locomotion)” value was “decrease alertness”; the “time spent in both REM and NREM sleep” value was “dose-dependently increase the time spent in both REM and NREM sleep”. Also, the “activity in post-traumatic stress disorder model” value with rat [3] is listed as “active”.
On to `CCOc1nc(C(F)(F)F)c2n1CCN([C@@H](C(=O)NC)c1ccccc1)[C@H]2CCc1ccc(C(F)(F)F)cc1` [Example 21, (R)-2′-{3-ethoxy-1-trifluoromethyl-(S)-8-[2-(4-trifluoromethyl-phenyl)-ethyl]-5,6-dihydro-8H-imidazo[1,5-a]pyrazin-7-yl}-N-methyl-2′-phenyl-acetamide], for which the figures for the IC50 at human orexin-1 receptor (setting [4]) and at human orexin-2 receptor (setting [5]) were 3540 nM and 63 nM, respectively.
As to `CNC(=O)[C@@H](c1ccccc1)N1CCn2c(C3CC3)nc(Cl)c2[C@@H]1CCc1ccc(Cl)c(F)c1` [Example 3, (R)-2′-{1-chloro-(S)-8-[2-(4-chloro-3-fluoro-phenyl)-ethyl]-3-cyclopropyl-5,6-dihydro-8H-imidazo[1,5-a]pyrazin-7-yl}-N-methyl-2′-phenyl-acetamide], the figures for the IC50 on human orexin-1 receptor (setting [6]) and at human orexin-2 receptor (setting [7]) were 43 nM and 11 nM, respectively.
In the case of `CCc1nc(C2CC2)n2c1C(CCc1ccc(C(F)(F)F)c(F)c1)N(C(C(=O)NC)c1ccccc1)CC2` [Example 17, (R)-2′-{3-cyclopropyl-1-ethyl-(8)-8-[2-(3-fluoro-4-trifluoromethyl-phenyl)-ethyl]-5,6-dihydro-8H-imidazo[1,5-a]pyrazin-7-yl}-N-methyl-2′-phenyl-acetamide], the figures for the IC50 at human orexin-1 receptor (setting [4]) and at human orexin-2 receptor (setting [5]) were 384 nM and 8 nM, respectively.
For `CNC(=O)[C@@H](c1ccccc1)N1CCn2c(C(F)(F)F)nc(C)c2[C@@H]1CCc1ccc(C(F)(F)F)cc1` [Example 13a, N-methyl-(R)-2′-{1-methyl-3-trifluoromethyl-(S)-8-[2-(4-trifluoromethyl-phenyl)-ethyl]-5,6-dihydro-8H-imidazo[1,5-a]pyrazin-7-yl}-2′-phenyl-acetamide], the IC50 was 259 nM on human orexin-1 receptor (setting [6]) and 8 nM at human orexin-2 receptor (setting [7]).
Regarding `CCc1nc(C(F)(F)F)n2c1[C@H](CCc1ccc(C(F)(F)F)cc1)N([C@@H](C(=O)NC)c1ccccc1)CC2` [Example 28, (R)-2′-{1-ethyl-3-trifluoromethyl-(8)-8-[2-(4-trifluoromethyl-phenyl)-ethyl]-5,6-dihydro-8H-imidazo[1,5-a]pyrazin-7-yl}-N-methyl-2′-phenyl-acetamide], the IC50 on human orexin-1 receptor (setting [4]) was 505 nM; at human orexin-2 receptor (setting [5]), 13 nM.
For the molecule `CNC(=O)[C@@H](c1ccccc1)N1CCn2c(SC)nc(Cl)c2[C@@H]1CCc1ccc(C(F)(F)F)c(F)c1F` [Example 8, (R)-2′-{1-chloro-(8)-8-[2-(2,3-difluoro-4-trifluoromethyl-phenyl)-ethyl]-3-methylsulfanyl-5,6-dihydro-8H-imidazo[1,5-a]pyrazin-7-yl}-N-methyl-2′-phenyl-acetamide], the values for the 50% inhibitory concentration (IC50) at human orexin-1 receptor (setting [6]) and on human orexin-2 receptor (setting [7]) were 56 nM and 21 nM, respectively.
For `CCc1nc(Cl)c2n1CCN([C@@H](C(=O)NC)c1ccccc1)[C@H]2CCc1cccc(OC(F)F)c1` [Example 11, (R)-2′-{1-chloro-(S)-8-[2-(3-difluoromethoxy-phenyl)-ethyl]-3-ethyl-5,6-dihydro-8H-imidazo[1,5-a]pyrazin-7-yl}-N-methyl-2′-phenyl-acetamide], the IC50 is 45 nM at human orexin-1 receptor (setting [6]) and 2 nM on human orexin-2 receptor (setting [7]).

What is called IC50 is the midpoint of a concentration-inhibition curve.
